Test results taken from US8961930B2, “Isatin derivatives for use as in vivo imaging agents” (Imperial Innovations Limited, priority 2008, dated 2015).
Several values for one entry are separate records, joined by “and”; a condition that tells them apart may be missing. Equal entries are not always repeated.

What was measured:
[1] = In vivo metabolism studies, radio-HPLC of plasma, liver and urine; parameters: species or system C3H/hej mice; details: for Recovery (plasma): extraction efficiency; for Parent (liver) / Recovery (liver): individual results from two samples
Experimental: [^18F]11 was injected intravenously into tumor-bearing mice and its tissue distribution was measured in selected tissues at 2, 15 and 60 min after injection. […] Furthermore, the in vivo metabolic stability of the radiotracer was determined from plasma and liver samples and, for [^18F]11, in urine samples.
In vivo metabolism studies were also performed in C3H/hej mice. […] Plasma, liver and urine samples were snap-frozen in liquid nitrogen and kept in pre-weighed scintillation counting tubes on dry ice prior to analysis.
Immediately prior to extraction the samples were thawed and placed on ice. For extraction, ice cold acetonitrile (1.5 mL) was added to plasma (0.2 mL); S9 incubation samples (3 mL) containing acetonitrile were also analysed. Each mixture was centrifuged (15493×g, 4° C., 3 min) and the resulting supernatant was evaporated to dryness under vacuum at 40° C. using a rotary evaporator. Liver samples were homogenized with ice cold acetonitrile (1.5 mL) using an IKA Ultra-Turrax T-25 homogeniser prior to centrifugation. The residues were then re-suspended in HPLC mobile phase (1.2 mL) and filtered through a Minisart hydrophilic syringe filter (0.2 μm) (Sartorius, Goettingen, Germany). Urine samples were diluted with HPLC mobile phase, filtered as above. The samples (1 mL) were then analyzed by radio-HPLC on an Agilent 1100 series HPLC system (Agilent Technologies, Stockport, UK) equipped with a γ-RAM Model 3 gamma-detector and the Laura software (IN/US Systems inc., Florida, USA).
The stationary phase comprised of a Waters μBondapak C18 reverse-phase column (300×7.8 mm). […] Furthermore, to assess the fraction of [^18F]9-derived radioactivity associated with the plasma and liver pellets after extraction versus that remaining in the HPLC injectate, the total volume of HPLC injectate was recorded and an aliquot (0.1 mL) removed for counting. The radioactivity in the 0.1 mL aliquot and the pellet were then analyzed by gamma counting (Packard Instruments).

[2] = test system: 38C13 murine lymphoma xenograft; assay: Biodistribution of [^18F]11 in 38C13 xenograft-bearing mice after PET scan; type: in vivo, C3H/hej mice; parameters: Biodistribution, Lung: unit not given here
Experimental: The in vivo experimental model of tumour apoptosis was established by subcutaneous injection of 38C13 murine lymphoma cells (5000 cells) on the back of 6-8 weeks old male C3H/hej mice (Harlan, Bicester, Oxfordshire, UK). When xenografts reached ˜100 mm3, the mice were treated with cyclophosphamide (CPA, 100 mg/kg) or vehicle for 24 h and then scanned on a dedicated small animal PET scanner (Siemens Inveon PET module). Anesthetized animals were placed within a thermostatically controlled bed and positioned prone within the scanner. A bolus injection of [^18F]11 (˜100 μCi) was given intravenously (i.v.) via the tail vein cannula and scanning commenced.
Dynamic emission scans were acquired in list-mode format over 60 minutes. The acquired data were then sorted into 0.5-mm sinogram bins and 19 time frames for image reconstruction, which was done by filtered back projection. The image data-sets obtained were visualized using the Siemens Inveon Research Workplace software. Cumulative images of the dynamic data were used for visualization of radiotracer uptake and to define the regions of interest (ROI). The count densities were averaged for each ROI at each of the 19 time points to obtain a time versus radioactivity curve (TAC) for the ROIs (see FIG. 15).
Tumour TAC was normalized to that of whole body at each of the time points to obtain the normalized uptake value (NUV).
After the scan, the different tissues were removed, weighted and placed in tubes for immediate Fluorine-18 radioactivity counting to assess the [^18F]11 biodistribution (See Table 4, below).

O=C1C(=O)N(Cc2cn(CC[18F])nn2)c2ccc(S(=O)(=O)N3CCC[C@H]3COc3ccc(F)cc3F)cc21 [[^18F]11, (S)-1-((1-(2-Fluoroethyl)-1H-[1,2,3]-triazol-4-yl)methyl)-5-(2(2,4-difluorophenoxymethyl)-pyrrolidine-1-sulfonyl)isatin]
Recovery (plasma) ([1]; 2 min): 92.1 ± 3.4% | Parent (liver) ([1]; 2 min): 35.7% and 43.4% | Recovery (liver) ([1]; 2 min): 79.7% and 86.9% | Parent (plasma) ([1]; 2 min after i.v. injection, mice, radio-HPLC): 86.1 ± 3.7% | Recovery (plasma) ([1]; 15 min): 76.8 ± 5.2% | Parent (liver) ([1]; 15 min): 9.7% and 10.2% | Recovery (liver) ([1]; 15 min): 67.1% and 68.9% | Parent (plasma) ([1]; 15 min after i.v. injection, mice, radio-HPLC): 61.3 ± 5.9% | Recovery (plasma) ([1]; 60 min): 50.9 ± 3.7% | Parent (liver) ([1]; 60 min): 27.0% and 29.7% | Recovery (liver) ([1]; 60 min): 46.4% and 65.2% | Parent (plasma) ([1]; 60 min after i.v. injection, mice, radio-HPLC): 64.8 ± 7.0% | stability to metabolic degradation in vivo ([1]; radio-HPLC, plasma and liver, mice): relatively more stable to metabolic degradation than [^125I]14 | increase in uptake in tumours of CPA-treated mice compared to the vehicle ([2]; 38C13 xenograft, CPA 100 mg/kg 24 h): 2 fold | Biodistribution, Blood ([2]; CPA): 1.00 ± 0.00 % ID Tumour/blood ratio | Biodistribution, Blood ([2]; Vehicle): 1.00 ± 0.00 % ID Tumour/blood ratio | Biodistribution, Bone ([2]; CPA): 0.93 ± 0.07 % ID Tumour/blood ratio | Biodistribution, Bone ([2]; Vehicle): 0.87 ± 0.10 % ID Tumour/blood ratio | Biodistribution, Brain ([2]; CPA): 0.23 ± 0.03 % ID Tumour/blood ratio | Biodistribution, Brain ([2]; Vehicle): 0.24 ± 0.02 % ID Tumour/blood ratio | Biodistribution, Feces ([2]; CPA): 8.46 ± 0.91 % ID Tumour/blood ratio | Biodistribution, Feces ([2]; Vehicle): 13.28 ± 2.37 % ID Tumour/blood ratio | Biodistribution, Heart ([2]; CPA): 1.43 ± 0.16 % ID Tumour/blood ratio | Biodistribution, Heart ([2]; Vehicle): 1.31 ± 0.10 % ID Tumour/blood ratio | Biodistribution, Kidney ([2]; CPA): 7.23 ± 0.47 % ID Tumour/blood ratio | Biodistribution, Kidney ([2]; Vehicle): 7.21 ± 0.33 % ID Tumour/blood ratio | Biodistribution, L. Intestine ([2]; CPA): 2.78 ± 0.64 % ID Tumour/blood ratio | Biodistribution, L. Intestine ([2]; Vehicle): 6.07 ± 0.62 % ID Tumour/blood ratio | Biodistribution, Liver ([2]; CPA): 14.17 ± 1.55 % ID Tumour/blood ratio | Biodistribution, Liver ([2]; Vehicle): 10.60 ± 0.75 % ID Tumour/blood ratio | Biodistribution, Lung ([2]; CPA): 5.49 ± 0.66 | Biodistribution, Lung ([2]; Vehicle): 4.27 ± 0.13 | Biodistribution, Muscle ([2]; CPA): 1.20 ± 0.07 % ID Tumour/blood ratio | Biodistribution, Muscle ([2]; Vehicle): 1.22 ± 0.07 % ID Tumour/blood ratio | Biodistribution, Plasma ([2]; CPA 100 mg/kg 24 h, 38C13 xenograft): 1.90 ± 0.09 % ID Tumour/blood ratio | Biodistribution, Plasma ([2]; Vehicle, 38C13 xenograft): 1.98 ± 0.23 % ID Tumour/blood ratio | Biodistribution, S. Intestine ([2]; CPA): 83.12 ± 70.19 % ID Tumour/blood ratio | Biodistribution, S. Intestine ([2]; Vehicle): 291.61 ± 28.68 % ID Tumour/blood ratio | Biodistribution, Spleen ([2]; CPA): 1.81 ± 0.37 % ID Tumour/blood ratio | Biodistribution, Spleen ([2]; Vehicle): 2.30 ± 0.38 % ID Tumour/blood ratio | Biodistribution, Stomach ([2]; CPA): 1.62 ± 0.19 % ID Tumour/blood ratio | Biodistribution, Stomach ([2]; Vehicle): 1.95 ± 0.00 % ID Tumour/blood ratio | Biodistribution, Tumour ([2]; CPA): 1.24 ± 0.11 % ID Tumour/blood ratio | Biodistribution, Tumour ([2]; Vehicle): 0.83 ± 0.10 % ID Tumour/blood ratio | Biodistribution, Urine ([2]; CPA): 43.64 ± 12.24 % ID Tumour/blood ratio | Biodistribution, Urine ([2]; Vehicle): 116.71 ± 19.47 % ID Tumour/blood ratio
